From a melting point compilation (Tetko et al.; mined from patent text by program, amines drawn as free bases though some values may be those of a salt)

melting point	SMILES
158 to 159 °C	Cc1cc(NC(=O)CCc2cccs2)cc(C)c1O
206 to 207 °C	CC(C)Cn1c(CNC(=O)OC(C)(C)C)c(-c2cccc(F)c2)c2cc(C(=O)O)ccc2c1=O
250 °C	Cc1nn(C)c(O)c1C(=O)c1c(Cl)cccc1Cl
119 to 120 °C	CCOc1ccc(-c2nc(-c3ccc(N4CCOCC4)c([N+](=O)[O-])c3)cs2)cc1OCC
190 to 192 °C	N#Cc1cccc(-n2ncc(C(=O)O)c2C#N)c1
157 to 160 °C	CC(=O)Nc1cc(Br)ccc1S(C)(=O)=O
130 to 132 °C	CC(C)(Nc1ccccc1N)C(=O)O
195 to 197 °C	CON(Cc1nc2c(N)nc3cc(OCc4ccccc4)ccc3c2n1CC1CCOCC1)S(C)(=O)=O
131 °C	CCCCC(C(=O)O)c1cccc(C(=O)c2cc3ccsc3s2)c1 (configuration not stated)
246 to 250 °C	O=C(CCc1ccccc1)c1cc2ccncc2[nH]1
126 to 127 °C	CCOc1nn(-c2ccc(C(F)(F)F)cc2)cc1CCCOc1cc(CCC(=O)O)n(-c2ccccc2)n1
82.5 to 84 °C	COc1cc2cc(OS(=O)(=O)C(F)(F)F)cnc2cc1OC
83 to 84 °C	COCCNC(=O)c1cccc(-c2cccc3oc(Cc4ccc(F)c(F)c4)cc23)c1
69 to 70 °C	CCCc1cc(CCCOc2c(C)cc(-c3noc(C)n3)cc2C)on1
108 to 110 °C	COc1cc(NC(=O)Nc2ccc3c(c2)CCN(C(=O)Nc2ccc(OCC(O)CO)cc2Cl)C3)cc(OC)c1 (configuration not stated)
70 to 71 °C	COC(=O)C1Oc2ccc(OC)cc2C(C)(c2ccccc2)O1 (configuration not stated)
170 to 173 °C	O=C(O)c1ccc(C=C2CCN(C(=O)c3ccc(Cl)cc3)CC2)c(F)c1
201 °C	Cc1cc(Oc2ccc(-c3ccn(CC4CC4)c(=O)c3C#N)cc2F)cc(C)n1
237 °C	COc1ccccc1-n1c(CSc2ncnc3[nH]cnc23)nc2cccc(Cl)c2c1=O

melting point	SMILES
65 to 67 °C	CC(=O)N(C(C)=O)c1nsc2ccccc12
124 to 125 °C	O=C(O)C(=O)c1ccc(OCCOc2cccc3ccccc23)cc1
190 °C	COc1ccc2ccc(N3Cc4ccccc4C3OCC(=O)O)nc2n1 (configuration not stated)
190 to 192 °C	Cc1nc2ccc(Cl)cc2c(=O)n1CCCn1ccnc1
110 to 111 °C	CCCCCCCCCCCCNC(=O)COc1ccc(OC(=O)c2ccccc2)cc1[N+](=O)[O-]
226 to 232 °C	Cc1ccc(N2C(=O)C(O)=C(C(=O)c3ccc(-c4ccccc4)cc3)C2c2ccc(OC(F)(F)F)cc2)nn1 (configuration not stated)
224 to 225 °C	CC(=O)NCC1CN(c2ccc(N3CCN(c4nc5cc([N+](=O)[O-])ccc5o4)CC3)c(F)c2)C(=O)O1 (configuration not stated)
249 to 251 °C	COC1OCOc2cc3c4c(cccc4c21)C(=O)N(O)C3=O (configuration not stated)
125 to 126 °C	Nc1nn(-c2c(Cl)cc(C(F)(F)F)cc2Cl)cc1C1CC1(Br)Br (configuration not stated)
> 260 °C	O=S(=O)(O)c1ccc2c(c1)CNC(C(Cl)(Cl)Cl)O2 (configuration not stated)
220 to 222 °C	COc1cc(OC)c(N2CCCC2)cc1/C=C/C(=O)c1ccc(S(N)(=O)=O)cc1
136 to 137 °C	C#CCN1C(=O)COc2ccc(-c3ncc(C(F)(F)F)cc3Cl)cc21
157 to 160 °C	Cc1ccc2c(c1)C=Cc1ncccc1C2c1cn(C)c(=O)[nH]c1=S (configuration not stated)
113 to 114 °C	CCOC(=O)c1c(Cl)nc2ccccc2c1-c1ccc(F)cc1
76 °C	CCC(O)(CC)c1cc(Cl)ccc1O
81 to 82 °C	OCc1cc(C(F)(F)F)ccc1I
326 to 330 °C	CC(=O)N(c1ccc(N2CCN(C)CC2)cc1)c1ncc2c(n1)S/C(=C/c1ccc(C(=O)O)cc1)C(=O)N2
105 to 107 °C	CN(C)c1nn(-c2c(Cl)cc(C(F)(F)F)cc2Cl)c(=O)n1C
130 °C	CCCNC(=O)C(C)Cc1ccc2cccc(Cc3ccc(C(=O)OC)cc3OC)c2c1 (configuration not stated)

melting point	SMILES
253 to 254 °C	CCn1cc(C(=O)O)c(=O)c2cc(F)c(N3CCN(C)C(c4sc5ccccc5c4C)C3)cc21 (configuration not stated)
147 to 148 °C	COc1cc(OCc2nc(-c3ccco3)oc2C)ccc1COc1nn(Cc2ccccc2)cc1C=O
161 to 162 °C	Cc1cc(OC2CCS(=O)(=O)CC2)cc(C)c1-c1cccc(COc2ccc(C3CC3C(=O)O)cc2)c1 (configuration not stated)
124 to 125 °C	COC(=O)c1ccccc1OCCN1CCC(c2c[nH]c3ccccc23)CC1
243 to 245 °C	CCn1c2ccccc2c2cc(-n3c(CC(=O)O)c(C(=O)O)c4cc(Oc5ccc(C(F)(F)F)cc5)ccc43)ccc21
218 to 220 °C	CCOc1nc(C)c(N2CCCn3c2nc2c(Cl)ccc(C(OC(F)F)C(F)(F)F)c23)c(C)n1 (configuration not stated)
105 to 110 °C	CCc1nc2cc(S(C)(=O)=O)c(Cl)cc2n1-c1ccc(CCOC(=O)NS(=O)(=O)c2ccc(C)cc2)cc1
153 °C	COc1ccc(-c2ccc(C=NO)cc2)cc1OC1CCCC1
146 to 148 °C	C#CCN(C(C)C)C(C)CC1=C2c3ccc(OC)cc3CCC2CCNC1=O (configuration not stated)
133 to 135 °C	CCC(C)n1c(Nc2cc(C(F)(F)F)ccc2C(F)(F)F)nc(C(F)(F)F)c(Cl)c1=O (configuration not stated)
225 to 226 °C	CCCOc1ccc(S(=O)(=O)N(C)C)cc1-c1ccc(C#N)c(=O)[nH]1
> 300 °C	O=C(O)c1ccc(-c2nnc(-c3ccc(C(F)(F)F)cc3)o2)cc1
> 280 °C	N#CCC(=O)Nc1ccc(-c2ccc(C(=O)O)c(=O)[nH]2)cc1
179 to 180 °C	COC1=C(Cl)C(=O)NC1=Nc1ccccc1
156 to 157 °C	COc1cc(COc2nn(-c3ccccc3)cc2/C=C/S(C)=O)ccc1OCc1nc(-c2ccco2)oc1C (configuration not stated)
289 °C	Cc1cc(-c2ccc(C(F)(F)F)nc2)nc(-c2ccnc(-c3ccc(S(N)(=O)=O)s3)c2)n1
188 °C	O=C(O)c1c(C(F)(F)F)nc2c(C(F)(F)F)cccc2c1O
106 to 108 °C	CCn1c2ccc(C(=O)CCCCl)cc2c2cc(C(=O)CCCCl)ccc21
172 °C	CC(=O)Nc1nc2c(ncn2COC(COC(C)=O)COC(C)=O)c(=O)[nH]1

Further lines, the compound ahead of its results:

SMILES	melting point
O=C1c2ccc(Cl)cc2CC1Br (configuration not stated)	69 to 76 °C
Cc1c(Br)c(C)c2c(C)coc2c1Cc1ccc(C(C)C)cc1	76 to 77 °C
Cc1cnc(-c2ncn3c2[C@@H]2CCCN2C(=O)c2c(Cl)cccc2-3)o1	228 to 230 °C
NC(=O)c1ccc(CCCNCC(O)c2ccccc2)s1 (configuration not stated)	94 to 96 °C
CCCn1c(=O)nc(SC)c2[nH]c(C3CCCC3)nc21	258 to 259 °C
C/C(=C(\C#N)C(N)=S)N1CCCN(c2ccccc2Cl)CC1	123 to 124 °C
Cc1c(C=CCCCCCCCCCC(=O)O)cccc1C(=O)c1ccc(Cl)cc1	49 °C
COc1ccc(N2CCN(c3ccc(-n4c(C)nn(CC(=O)c5ccc(Cl)cc5)c4=O)cc3)CC2)cc1	230 °C
CN1CC(CN2C(=O)c3ccccc3C2=O)CC2c3cc(C(C)(C)C)cc4[nH]cc(c34)CC21 (configuration not stated)	132 to 137 °C
CN1C(=O)C2CN(Cc3ccncc3)CCN2c2ccccc21 (configuration not stated)	252 to 254 °C
CC(=O)CNC(=O)c1ccccc1C	65 to 66 °C
CCCn1c(N)c(NC(=O)C2(NC(=O)C(F)(F)F)CCCC2)c(=O)n(CCC)c1=O	203 to 204 °C
C=CCOc1ccc(-c2nc3n(c2-c2ccc(OCC=C)cc2)CCS3)cc1	135 to 138 °C
COCCc1nc2c(N)nc3ccccc3c2n1CCCCCCCCNC(=O)Nc1ccccc1	136 to 142 °C
CCON=Cc1cc(-n2c(=O)n(C)c(=S)n(C)c2=O)ccc1Cl	139 to 141 °C
O=C1c2c(O)cccc2C(c2cccs2)c2cccc(O)c21	181 to 182 °C
CCCCCCCc1noc(-c2ncn3c2CN(C)C(=O)c2c(Cl)cccc2-3)n1	108 to 110 °C
O=C1CC[C@@H](CCCO)[C@H](c2ccc(OCc3ccccc3)cc2OCc2ccccc2)C1 (relative stereo)	110 to 117 °C
Oc1ccc(I)c(-c2cc(O)ccc2I)c1	181 to 182 °C
CC(=O)OC1C(C)OC(Oc2nc[nH]c2C(N)=O)C(OC(C)=O)C1OC(C)=O (configuration not stated)	184 to 186 °C

SMILES	melting point
N#CC1=C(C#N)SC(c2ccccc2)CS1 (configuration not stated)	122 to 124 °C
CS(=O)(=O)NC[C@@H]1CN(c2ccc(N3CCC(O)(CN=[N+]=[N-])CC3)c(F)c2)C(=O)O1	142 to 144 °C
O=C(Nc1ccc(-n2ccnc2)cc1)NC12CC3CC(CC(C3)C1)C2	272 to 276 °C
O=C(NCc1cccnc1)Nc1ccc([N+](=O)[O-])cc1	220 to 222 °C
CCCCCCC1CCC(c2ccc(CCCCC)cc2)OC1=O (configuration not stated)	101 to 102 °C
CCOC(=O)c1c(C)cc2c(c1C)c(=O)n(-c1ccccc1Cl)c(=O)n2CC(N)=O	285 to 287 °C
c1ccc(C(OC2CCN(CCCOc3ccc(-c4nnn[nH]4)cc3)CC2)c2ccccc2)cc1	167 to 171 °C
CSc1cncnc1-c1ssc(=S)c1C	89 to 90 °C
CCCC1=NN(c2ccc(C(=O)N(CC)CC)cc2)C(=O)C1=CNc1ccccc1CC	123 °C
CCNC(=O)Nc1ccc(-c2sc3c(c2CN(C)CCOC)c(=O)n(-c2ccc(OCCOC)c(OCCOC)c2)c(=O)n3Cc2c(F)cccc2F)cc1	206 to 208 °C
CC(C)n1nc(-c2c(OCc3ccccn3)nc(N)nc2-c2ccccc2)ccc1=O	177 to 178 °C
COCc1cnc(N)nc1N	171 to 174 °C
NC(=O)c1cc2c3ccccc3n(Cc3ccccc3)c2s1	207 °C
CCCc1ncc(C=CC=CC(=O)OCC)s1	52 °C
CCCCNc1ccn2ncc(Br)c2n1	94 to 95 °C
CCn1c(=O)n(C)c(=O)c2c(C(=O)N3C[C@](C)(O)CO3)c(Cn3c(C)nc(Cl)c3Cl)sc21	130 to 133 °C
CC(C)n1cc2c3c(cccc31)C1CC(C(=O)NC3CCCCC3)CN(C)C1C2 (configuration not stated)	> 250 °C
N#Cc1cc(F)c(-n2ncc(Cl)c(Cl)c2=O)cc1F	206 °C
O=[N+]([O-])c1c(NCC23CCCN2CCC3)cnc2ccccc12	95 to 99 °C
O=CNc1ccc(Br)c(Cl)c1	110 to 113 °C
